{
  "source": "patent US20160032005A1",
  "about": "“METHODS AND PHARMACEUTICALS COMPOSITIONS FOR TREATING BREAST CANCERS” (INSERM (Institut National de la Sante et de la Recherche …, priority 2014, published 2016)",
  "key": {"Vangl2-p62 interaction [1]": {"target": "T1, Vangl2-p62 interaction (Homo sapiens, UniProt Q9ULK5)", "T1 construct": "endogenous in cells; host or cells: SUM149 cells / cell extracts", "T1 sequence (Q9ULK5 1-521)": "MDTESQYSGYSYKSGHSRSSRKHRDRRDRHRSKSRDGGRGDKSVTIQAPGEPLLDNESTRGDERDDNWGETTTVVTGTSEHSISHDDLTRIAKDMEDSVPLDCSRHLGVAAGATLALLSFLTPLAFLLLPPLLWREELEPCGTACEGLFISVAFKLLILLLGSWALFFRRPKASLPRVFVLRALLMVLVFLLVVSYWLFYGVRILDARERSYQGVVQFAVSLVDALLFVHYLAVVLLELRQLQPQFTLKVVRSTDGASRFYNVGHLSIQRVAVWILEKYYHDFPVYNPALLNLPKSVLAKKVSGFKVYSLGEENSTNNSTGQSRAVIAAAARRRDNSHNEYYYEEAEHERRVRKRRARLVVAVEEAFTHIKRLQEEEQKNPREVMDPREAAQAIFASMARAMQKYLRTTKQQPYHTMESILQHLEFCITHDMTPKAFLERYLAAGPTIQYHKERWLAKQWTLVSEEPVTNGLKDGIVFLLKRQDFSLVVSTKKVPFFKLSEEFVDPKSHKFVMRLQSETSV", "experiment": "Competition of endogenous Vangl2-p62 interaction recovered by immunoprecipitation, peptide incubated in SUM149 cell extracts", "type": "binding", "conditions": "SUM149 cells / cell extracts"}, "p62": {"test_system": "p62", "experiment": "p62 immunolocalization and protein level under autophagy modulators", "type": "cell-based", "conditions": "breast cancer and Hela cells", "text": "(§1) We next addressed the potential colocalization of Vangl2 and p62 in SUM149 cells by immunofluorescence and confocal analysis. In these cells, Vangl2 and p62 have a punctate cytoplasmic pattern and colocalization between the two proteins was seen puncta in the perinuclear region. Specificity of the Vangl2 signal is attested by lack of staining in cells treated with shVangl2. p62 is present in autophagosomes where it accumulates ubiquitinylated proteins bound to its UBA domain for autophagic degradation. Autophagy is active when the fusion between autophagosomes and lysosomes occur leading to the formation of autophagolysosomes endowed with degradative properties. The fusion process, and therefore autophagy, can be inhibited by Bafilomycin A1, an inhibitor of the vacuolar ATPase that blocks the fusion process by blocking the membrane-bound lysosomal vacuolar ATPase (V-ATPase) to prevent the lysosomal lumen acidification responsible for cathepsin activation. Alternatively, autophagy can be induced by rapamycin, an inhibitor of mTOR [38]. […] Decrease of p62 protein level can also be monitored by western blot. Vangl2 protein levels remained unmodified by rapamycin treatment while another prominent feature of autophagy, i.e. degradation of p62 was readily seen. […]"}, "Vangl2": {"test_system": "Vangl2", "experiment": "Vangl2 protein level (western blot) and cellular distribution under autophagy modulators", "type": "cell-based", "text": "as §1"}, "SUM149 cells [2]": {"test_system": "SUM149 cells", "experiment": "Cell migration assay (Boyden chamber, serum as chemo-attractant)", "type": "cell-based", "conditions": "compared to Venus ctrl or shLuc"}, "SUM149 cells [3]": {"test_system": "SUM149 cells", "experiment": "Long-term cell proliferation and anchorage-independent soft agar assays", "type": "cell-based", "conditions": "compared to Venus ctrl or shLuc", "text": "In order to challenge the role of Vangl2 in tumor growth, we first designed different short hairpin RNA (shRNA) to downregulate Vangl2 protein expression in SUM149, a basal breast cancer cell line, which were targeted to different sequences of the VANGL2 gene. Vangl2 expression is decreased by approximately 90% with shVangl2 (clone 3.6.9 and 3.2.12) compared shLuc controls. […] Behaviour of shLuc-SUM149 and shVangl2-SUM149 cells was next compared in long-term cell proliferation and anchorage-independent experiments using soft agar assays. Cell proliferation and in vitro tumorigenicity of SUM149 cells were decreased when expression of Vangl2 was decreased using shVangl2 clone 3.6.9. This effect was confirmed using a second shVangl2 clone 3.2.12. The tumorigenic potential of Vangl2 was next assessed in vivo by performing subcutaneous xenografts in NOG mice. Orthotopic injections of shLuc-SUM149 and shVangl2-SUM149 cells were performed and tumour growth was periodically measured.\nAs JNK signaling is usually activated following PCP activation, we next investigated this pathway in SUM149 cells. As previously shown, down-regulation of Vangl2 leads to a decrease in JNK signaling as shown using a time-dependent FCS stimulation of SUM149 transfected with shVangl2 compared to shLuc. No change in phosphorylation of GSK3 was evidenced in the absence of Vangl2. […]"}, "Vangl2-p62 interaction [4]": {"target": "T1, Vangl2-p62 interaction", "experiment": "Co-immunoprecipitation in SUM149 cells expressing the construct", "type": "cell-based", "conditions": "construct expressed in SUM149 cells, compared to GFP alone", "text": "(§2) As JNK signaling is usually activated following PCP activation, we next investigated this pathway in SUM149 cells. As previously shown, down-regulation of Vangl2 leads to a decrease in JNK signaling as shown using a time-dependent FCS stimulation of SUM149 transfected with shVangl2 compared to shLuc. No change in phosphorylation of GSK3 was evidenced in the absence of Vangl2. […] Knock-down of p62 expression in SUM149 cells phenocopied lack of Vangl2 expression. […] Next, we fused the p62 (346-388) sequence to GFP and expressed the construct in SUM149 cells. […] Indeed, this construct was able to specifically coimmunoprecipitate with Vangl2 and furthermore compete with the endogenous Vangl2-p62 interaction as shown by the decreased amount of endogenous p62 associated with Vangl2. In order to assess the contribution of the Vangl2-p62 interaction in JNK signaling, we utilized the dominant negative region of p62 and expressed this as a GFP-tagged protein."}, "JNK signaling": {"test_system": "JNK signaling", "experiment": "JNK signaling in SUM149 cells", "type": "cell-based", "conditions": "compared to GFP alone or shLuc", "text": "as §2"}},
  "data": [
    {"compound": "polypeptide (346-371): polypeptide reduced in size, residues 346-371 of p62 (SEQ ID NO:2) (VDPSTGELQSLQMPESEGPSSLDPSQ; listed as Homo sapiens)", "values": [
      {"measurement": "disruption of the endogenous Vangl2-p62 interaction", "setting": "Vangl2-p62 interaction [1]", "value": "able to inhibit"}
    ]},
    {"compound": "CO/C1=C\\C(C)=C\\[C@@H](C)[C@@H](O)[C@@H](C)C/C(C)=C/C=C/[C@H](OC)[C@@H]([C@@H](C)[C@@H](O)[C@H](C)[C@@]2(O)C[C@@H](O)[C@H](C)[C@@H](C(C)C)O2)OC1=O", "note": "[Bafilomycin A1]", "values": [
      {"measurement": "p62 immunolocalization", "setting": "p62", "value": "accumulates"},
      {"measurement": "Vangl2 protein levels", "setting": "Vangl2", "value": "not modified"}
    ]},
    {"compound": "Venus-p62 (346-388): Venus-tagged p62 (346-388) expressed by lentiviral infection", "values": [
      {"measurement": "cell migration", "setting": "SUM149 cells [2]", "value": "decrease"},
      {"measurement": "colonies in soft agar / in vitro tumorigenicity", "setting": "SUM149 cells [3]", "value": "fewer colonies"}
    ]},
    {"compound": "GFP-p62 (346-388): p62 (346-388) sequence fused to GFP, expressed in SUM149 cells", "values": [
      {"measurement": "effect on endogenous Vangl2-p62 interaction in co-immunoprecipitation", "setting": "Vangl2-p62 interaction [4]", "value": "dominant-negative effect"},
      {"measurement": "JNK signalling", "setting": "JNK signaling", "value": "decrease"}
    ]}
  ]
}
